Among the test systems are EKVX NSCLC; MOLT-4 leukemia; NCI-H23 lung; U251 CNS; HS 578T breast; COLO 205 colon; MALME-3M melanoma; NCI/ADR-RES ovarian; HCT-116 colon; LOX IMVI melanoma.
What all share (test): growth of human tumour cells (NCI), 48 h

Structures are written as SMILES.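 Compound exposure: 48 hours, 5 concentrations, 96-well plates. At the GI50, growth is halved. The concentration for full growth arrest is given as TGI.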 Bounds are passed on as bounds.

On to `COc1ccc(-c2cc(-c3nnc(SCC(=O)Nc4ccc(C(C)=O)cc4)o3)c3ccccc3n2)cc1`, for which the GI50 in the assay on EKVX NSCLC was over 100 µM; in the assay with MOLT-4 leukemia it was over 100 µM; in the assay with NCI-H23 lung, 25.4 µM; in the assay with U251 CNS it was 10.2 µM; with HS 578T breast, 14.2 µM; in the assay on COLO 205 colon it was over 100 µM. The GI50 in the assay on MALME-3M melanoma was 10.6 µM; with NCI/ADR-RES ovarian, over 100 µM; in the assay on HCT-116 colon it was 2.9 µM; in the assay with LOX IMVI melanoma it was 73.7 µM. The TGI with EKVX NSCLC is over 100 µM; in the assay with MOLT-4 leukemia it was over 100 µM; with NCI-H23 lung, over 100 µM; in the assay with U251 CNS it was 55.9 µM; in the assay on HS 578T breast, 92.3 µM; with COLO 205 colon, over 100 µM. For the same molecule, the TGI was 91.8 µM in the assay on MALME-3M melanoma, over 100 µM with NCI/ADR-RES ovarian, over 100 µM with HCT-116 colon and over 100 µM with LOX IMVI melanoma.
With `COc1ccc(-n2c3c(c4c(CN(C)C)c(O)c(C)cc42)CCc2ccccc2C3=O)cc1`, the GI50 in the assay on EKVX NSCLC is 44.5 µM; in the assay on MOLT-4 leukemia it was 22.9 µM; with NCI-H23 lung, 14 µM; in the assay with U251 CNS, 28.3 µM; in the assay on HS 578T breast, 48.2 µM; with COLO 205 colon it was over 100 µM. In addition, the GI50 was 25.4 µM in the assay with MALME-3M melanoma, 17.9 µM in the assay with NCI/ADR-RES ovarian, 34.4 µM with HCT-116 colon and 17.1 µM in the assay with LOX IMVI melanoma. Moreover, the TGI with EKVX NSCLC is over 100 µM; with MOLT-4 leukemia it was 65.7 µM; in the assay on NCI-H23 lung it was 69 µM; with U251 CNS, over 100 µM; in the assay on HS 578T breast it was over 100 µM; in the assay on COLO 205 colon, over 100 µM. Moreover, the TGI in the assay on MALME-3M melanoma is over 100 µM; in the assay with NCI/ADR-RES ovarian, 45.2 µM; in the assay with HCT-116 colon, over 100 µM; in the assay with LOX IMVI melanoma, 45.2 µM.
In the case of `Cc1ccc(C[P+](c2ccccc2)(c2ccccc2)c2ccccc2)cc1`, the GI50 is 0.369 µM in the assay with EKVX NSCLC; 2.44 µM in the assay with MOLT-4 leukemia; 0.554 µM in the assay on NCI-H23 lung; 0.628 µM in the assay on U251 CNS; 0.366 µM in the assay with HS 578T breast; 0.74 µM in the assay on COLO 205 colon. The GI50 is 0.428 µM in the assay on MALME-3M melanoma, 37.7 µM in the assay with NCI/ADR-RES ovarian, 0.382 µM in the assay with HCT-116 colon and 1.07 µM in the assay on LOX IMVI melanoma. The TGI in the assay with EKVX NSCLC was over 58.6 µM; in the assay on MOLT-4 leukemia, over 21.7 µM; in the assay on NCI-H23 lung it was 5.46 µM; in the assay on U251 CNS, over 39.3 µM; with HS 578T breast, 3.11 µM; in the assay with COLO 205 colon, 6.7 µM. The TGI was 14.5 µM in the assay with MALME-3M melanoma, over 100 µM in the assay with NCI/ADR-RES ovarian, 5.21 µM with HCT-116 colon and 4.24 µM in the assay with LOX IMVI melanoma.
`COc1cc2ncn(-c3cc(OCc4ccccc4S(C)(=O)=O)c(C#N)s3)c2cc1OC`: the GI50 in the assay on EKVX NSCLC was over 25 µM; in the assay with MOLT-4 leukemia it was over 25 µM; in the assay on NCI-H23 lung, over 25 µM; in the assay on U251 CNS, over 22.3 µM; with HS 578T breast, over 17.9 µM; in the assay on COLO 205 colon, over 25 µM. In addition, the GI50 in the assay on MALME-3M melanoma, in the assay with NCI/ADR-RES ovarian, in the assay on HCT-116 colon and with LOX IMVI melanoma was over 25 µM throughout. For the same molecule, the TGI in the assay with EKVX NSCLC, in the assay on MOLT-4 leukemia, in the assay with NCI-H23 lung, with U251 CNS, in the assay on HS 578T breast and in the assay with COLO 205 colon was over 25 µM in each case. For the same molecule, the TGI in the assay on MALME-3M melanoma, with NCI/ADR-RES ovarian, in the assay on HCT-116 colon and with LOX IMVI melanoma was over 25 µM in each case.
As for `Cc1ccc(/C(=C/C=C(C#N)C#N)Sc2ccccn2)cc1`, the GI50 in the assay with EKVX NSCLC is 14.6 µM; in the assay with MOLT-4 leukemia, 2.01 µM; in the assay on NCI-H23 lung, 3.68 µM; with U251 CNS, 5.02 µM; in the assay with HS 578T breast it was 2.46 µM; in the assay with COLO 205 colon, 1.72 µM. For the same molecule, the GI50 was 4.09 µM in the assay with MALME-3M melanoma, 4.63 µM with NCI/ADR-RES ovarian, 2.35 µM in the assay on HCT-116 colon and 1.83 µM in the assay with LOX IMVI melanoma. Further, the TGI worked out at 31.1 µM in the assay on EKVX NSCLC; 6.32 µM with MOLT-4 leukemia; 10.9 µM with NCI-H23 lung; 20.3 µM in the assay with U251 CNS; 8.32 µM in the assay with HS 578T breast; 3.79 µM in the assay on COLO 205 colon. Moreover, the TGI was determined as 17.3 µM in the assay on MALME-3M melanoma, 13.2 µM in the assay on NCI/ADR-RES ovarian, 5.71 µM with HCT-116 colon and 4.05 µM with LOX IMVI melanoma.
Consider `O=C(NC1(C(=O)O)CC1c1ccccc1)c1ccccc1` (stereo not given), for which the TGI in the assay with EKVX NSCLC, in the assay with MOLT-4 leukemia, in the assay with NCI-H23 lung, with U251 CNS, with HS 578T breast and in the assay with COLO 205 colon was over 100 µM each time. Also, the TGI in the assay with MALME-3M melanoma, in the assay with NCI/ADR-RES ovarian, with HCT-116 colon and in the assay with LOX IMVI melanoma was over 100 µM in each case.
Consider `CN(C)S(=O)(=O)c1ccc(Nc2ccc(O)c3c2C(=O)c2c([N+](=O)[O-])ccc(O)c2C3=O)cc1`, for which the TGI with EKVX NSCLC, with MOLT-4 leukemia, with NCI-H23 lung, in the assay on U251 CNS, in the assay on HS 578T breast and in the assay on COLO 205 colon was over 100 µM each time. Also, the TGI in the assay with MALME-3M melanoma, with NCI/ADR-RES ovarian, in the assay with HCT-116 colon and in the assay on LOX IMVI melanoma was over 100 µM each time.
As to `COc1cc2c(cc1OCCCN1CCN(c3cc(=O)oc4c(C)c(OC)ccc34)CC1)N=C[C@@H]1CCCN1C2=O`, the GI50 in the assay with EKVX NSCLC was 4.05 µM; in the assay on MOLT-4 leukemia it was 0.372 µM; in the assay with NCI-H23 lung it was 1.89 µM; in the assay with U251 CNS, 1.58 µM; in the assay on HS 578T breast, 2.35 µM; in the assay on COLO 205 colon it was 0.268 µM. For the same molecule, the GI50 is 1.16 µM in the assay with MALME-3M melanoma, 16.6 µM in the assay on NCI/ADR-RES ovarian, 1.16 µM in the assay on HCT-116 colon and 0.826 µM with LOX IMVI melanoma. For the same molecule, the TGI in the assay on EKVX NSCLC is over 47.3 µM; in the assay on MOLT-4 leukemia it was 3.7 µM; in the assay with NCI-H23 lung, 5.2 µM; with U251 CNS, over 100 µM; in the assay with HS 578T breast, 15.6 µM; with COLO 205 colon, 1.43 µM. In addition, the TGI in the assay on MALME-3M melanoma was 3.59 µM; with NCI/ADR-RES ovarian, over 88.5 µM; with HCT-116 colon, 8.94 µM; with LOX IMVI melanoma it was 6.87 µM.
Take `N#C[C@H]1Nc2ccccc2[C@@H](O)C1O` (stereo not given in full): the TGI in the assay with EKVX NSCLC, in the assay with MOLT-4 leukemia, in the assay on NCI-H23 lung, in the assay with U251 CNS, with HS 578T breast and in the assay on COLO 205 colon was over 100 µM in each case. The TGI in the assay with MALME-3M melanoma, in the assay with NCI/ADR-RES ovarian, with HCT-116 colon and in the assay with LOX IMVI melanoma was over 100 µM each time.
Regarding `CC1(C)N[P+]2(Nc3ccccc3O2)OC1=O` (stereo not given), the TGI with EKVX NSCLC is over 100 µM; with MOLT-4 leukemia, over 100 µM; with NCI-H23 lung, over 100 µM; in the assay on U251 CNS, over 100 µM; with HS 578T breast, over 100 µM; in the assay with COLO 205 colon, 49.9 µM. In addition, the TGI in the assay on MALME-3M melanoma, in the assay on NCI/ADR-RES ovarian, in the assay on HCT-116 colon and with LOX IMVI melanoma was over 100 µM throughout.
For `COC(=O)[C@]12CC=C3O[C@@H]4OC5(CCCCC5)O[C@@H]4[C@H]3C1C(=O)C=CC2=O` (stereo not given in full), the TGI in the assay with EKVX NSCLC was 52.1 µM; in the assay on MOLT-4 leukemia, 21.4 µM; in the assay with NCI-H23 lung, 33.6 µM; in the assay with U251 CNS it was 36.1 µM; with HS 578T breast, 78.4 µM; in the assay on COLO 205 colon, 30.4 µM. In addition, the TGI was determined as 34.2 µM in the assay on MALME-3M melanoma, 38.5 µM in the assay with NCI/ADR-RES ovarian, 32.4 µM with HCT-116 colon and 35.2 µM in the assay with LOX IMVI melanoma.
As for `O=C1OCC2=C1C(c1cccc(C(F)(F)F)c1)c1cc3c(cc1N2CCO)CCC3` (stereo not given), the GI50 was 0.278 µM in the assay with EKVX NSCLC; 0.27 µM in the assay on MOLT-4 leukemia; 0.321 µM in the assay on NCI-H23 lung; 0.199 µM in the assay on U251 CNS; 0.146 µM in the assay on HS 578T breast; 0.163 µM in the assay on COLO 205 colon. The GI50 with MALME-3M melanoma is 0.714 µM; in the assay on NCI/ADR-RES ovarian it was 0.153 µM; in the assay with HCT-116 colon it was 0.175 µM; in the assay with LOX IMVI melanoma, 0.271 µM. Besides, the TGI in the assay with EKVX NSCLC was 9.52 µM; in the assay with MOLT-4 leukemia, 15.5 µM; in the assay on NCI-H23 lung, 14.5 µM; in the assay with U251 CNS, 7.92 µM; in the assay on HS 578T breast it was 7.72 µM; in the assay with COLO 205 colon it was 1.59 µM. For the same molecule, the TGI with MALME-3M melanoma is 10.5 µM; in the assay on NCI/ADR-RES ovarian, 6.82 µM; in the assay on HCT-116 colon, 6.55 µM; in the assay with LOX IMVI melanoma, 6.77 µM.
For the molecule `CCN1CCC(CC(=O)Nc2n[nH]c3nc(-c4cccs4)c(Br)cc23)CC1`, the GI50 in the assay on EKVX NSCLC was over 25 µM; in the assay with MOLT-4 leukemia it was 9.07 µM; in the assay with NCI-H23 lung, 20.1 µM; in the assay on U251 CNS, 6.78 µM; in the assay with HS 578T breast, 12.3 µM; in the assay on COLO 205 colon, 3.91 µM. In addition, the GI50 in the assay on MALME-3M melanoma was 6.42 µM; in the assay on NCI/ADR-RES ovarian it was over 20.7 µM; in the assay on HCT-116 colon it was 7.81 µM; with LOX IMVI melanoma, 5.11 µM. The TGI in the assay with EKVX NSCLC is over 25 µM; in the assay with MOLT-4 leukemia, 24.5 µM; in the assay with NCI-H23 lung it was over 25 µM; with U251 CNS, 19.4 µM; with HS 578T breast, over 25 µM; with COLO 205 colon it was 8.16 µM. Also, the TGI in the assay with MALME-3M melanoma is 13.4 µM; in the assay on NCI/ADR-RES ovarian it was over 25 µM; in the assay with HCT-116 colon, over 23.4 µM; with LOX IMVI melanoma, 14.1 µM.

For the origin of these results see PubChem BioAssay (NCI).
